Here are results for 15 compounds from patent US20230167118A1, “DEGRADATION OF BRUTON'S TYROSINE KINASE (BTK) BY CONJUGATION OF BTK INIDBITORS WITH E3 LIGASE LIGAND AND METHODS OF USE” (BEIGENE, LTD., priority 2020, published 2023).

One assay concerns the target T1, BTK (Homo sapiens, UniProt Q06187).
T1 construct: High control=Cell group with added DMSO and without compound, indicating microplate readings without BTK degradation; endogenous in cells; host or cells: TMD-8 cells
The experiment in a line: Cell Degradation: BTK degradation in TMD-8 cells, HTRF assay. Particulars: 6 h treatment, IC50 (DC50) of BTK degradation. In kind it is cell-based. The essentials:
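TMD-8 cells treated 6 h with 8-dose 6-fold dilutions in 0.2% DMSO, then lysed and BTK quantified by HTRF (665/620 nm). Degradation % normalised to high/low controls; DC50 from four-parameter fit, Dmax as maximal degradation.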
(Time-resolved FRET reads energy transfer from a long-lived donor to a nearby acceptor.)

For a further assay, the system named is HEK-293 cells. In words: HEK-293 Cytotoxicity Assay (CellTiter-Glo). In kind it is cell-based. As to conditions: Homo sapiens, HEK293, 72 h incubation, CellTiter-Glo luminescence. The essentials:
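HEK-293 cells treated 72 h with 8 concentrations (4-fold dilutions, 0.2% DMSO final). Viability read by CellTiter-Glo luminescence; IC50 from four-parameter logistic fit of % inhibition.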
(ATP-based viability assays read luminescence as a measure of living cells.)

T1 sequence (Q06187 whole entry): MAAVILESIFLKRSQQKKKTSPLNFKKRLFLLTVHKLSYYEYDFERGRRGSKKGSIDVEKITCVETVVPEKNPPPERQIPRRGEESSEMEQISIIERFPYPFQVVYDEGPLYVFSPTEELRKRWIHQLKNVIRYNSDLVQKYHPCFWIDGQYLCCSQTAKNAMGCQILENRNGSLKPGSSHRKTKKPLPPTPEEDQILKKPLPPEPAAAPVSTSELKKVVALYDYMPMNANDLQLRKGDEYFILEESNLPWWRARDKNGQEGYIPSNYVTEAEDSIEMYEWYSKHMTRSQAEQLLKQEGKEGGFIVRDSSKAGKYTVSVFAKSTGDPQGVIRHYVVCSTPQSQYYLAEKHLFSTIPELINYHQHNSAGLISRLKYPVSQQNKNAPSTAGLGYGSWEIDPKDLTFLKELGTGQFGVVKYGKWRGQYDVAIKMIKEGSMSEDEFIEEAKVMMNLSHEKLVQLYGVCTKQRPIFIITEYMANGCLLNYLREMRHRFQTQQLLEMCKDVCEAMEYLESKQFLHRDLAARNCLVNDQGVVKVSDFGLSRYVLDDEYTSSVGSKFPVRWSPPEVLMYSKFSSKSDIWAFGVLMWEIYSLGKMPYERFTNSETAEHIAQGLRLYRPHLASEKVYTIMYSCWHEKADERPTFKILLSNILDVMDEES

Compound `Cc1cc(-c2ncnc3[nH]c(-c4c(C)nn(C5CCN(CCNCC6CCN(c7ccc(N8CCC(=O)NC8=O)cc7)CC6)CC5)c4C)cc23)ccc1[C@@H](C)NC(=O)c1nc(C(C)(C)C)no1` [Example 175, (R)-3-(tert-butyl)-N-(1-(4-(6-(1-(1-(2-(((1-(4-(2,4-dioxotetrahydropyrimidin-1(2H)-yl)phenyl)piperidin-4-yl)methyl)amino)ethyl)piperidin-4-yl)-3,5-dimethyl-1H-pyrazol-4-yl)-7H-pyrrolo[2,3-d]pyrimidin-4-yl)-2-methylphenyl)ethyl)-1,2,4-oxadiazole-5-carboxamide] registered a DC50 on BTK of 1.97 nM. The same compound had an IC50 in the assay with HEK-293 cells of 7360 nM.

As to `CC(C)(C)c1noc(C(=O)NCc2ccc(-c3ncnc4[nH]c(-c5ccc(N6CCN(CC7CCN(c8ccc(N9CCC(=O)NC9=O)cc8)CC7)CC6)nc5)cc34)cc2F)n1` [Example 42, 3-(tert-butyl)-N-(4-(6-(6-(4-((1-(4-(2,4-dioxotetrahydropyrimidin-1(2H)-yl)phenyl)piperidin-4-yl)methyl)piperazin-1-yl)pyridin-3-yl)-7H-pyrrolo[2,3-d]pyrimidin-4-yl)-2-fluorobenzyl)-1,2,4-oxadiazole-5-carboxamide], on BTK, half-maximal degradation (DC50) was put at 0.51 nM. Besides, the IC50 in the assay with HEK-293 cells was greater than 10000 nM.

`CC(C)(C)c1noc(C(=O)NCc2ccc(-c3ncnc4[nH]c(-c5ccc(N6CCN(CC7CCN(c8ccc(N9CCC(=O)NC9=O)cc8)CC7)CC6)cc5)cc34)cc2CO)n1` [Example 109, 3-(tert-butyl)-N-(4-(6-(4-(4-((1-(4-(2,4-dioxotetrahydropyrimidin-1(2H)-yl)phenyl)piperidin-4-yl)methyl)piperazin-1-yl)phenyl)-7H-pyrrolo[2,3-d]pyrimidin-4-yl)-2-(hydroxymethyl)benzyl)-1,2,4-oxadiazole-5-carboxamide] registered a half-maximal degradation concentration (DC50) at BTK of 0.72 nM. Besides, the IC50 in the assay with HEK-293 cells was greater than 10000 nM.

Regarding `Cc1cc(-c2ncnc3[nH]c(-c4ccc(N5CCN(CC6CCN(c7ccc(N8CCC(=O)NC8=O)cc7)CC6)CC5)nc4)c(F)c23)ccc1[C@@H](C)NC(=O)c1nc(C(C)(C)C)no1` [Example 142, (R)-3-(tert-butyl)-N-(1-(4-(6-(6-(4-((1-(4-(2,4-dioxotetrahydropyrimidin-1(2H)-yl)phenyl)piperidin-4-yl)methyl)piperazin-1-yl)pyridin-3-yl)-5-fluoro-7H-pyrrolo[2,3-d]pyrimidin-4-yl)-2-methylphenyl)ethyl)-1,2,4-oxadiazole-5-carboxamide], it took 2.99 nM to reach half-maximal degradation on BTK (DC50). For the same compound, in the assay on HEK-293 cells, the 50% inhibitory concentration (IC50) was greater than 10000 nM.

As for `Cc1cc(-c2ncnc3[nH]c(-c4ccc(C5CC6CCC(C5)N6CC5CCN(c6ccc(N7CCC(=O)NC7=O)cn6)CC5)cc4)cc23)ccc1[C@@H](C)NC(=O)c1nc(C(C)(C)C)no1` (stereo partly drawn) [Example 182, 3-(tert-butyl)-N-((1R)-1-(4-(6-(4-(8-((1-(5-(2,4-dioxotetrahydropyrimidin-1(2H)-yl)pyridin-2-yl)piperidin-4-yl)methyl)-8-azabicyclo[3.2.1]octan-3-yl)phenyl)-7H-pyrrolo[2,3-d]pyrimidin-4-yl)-2-methylphenyl)ethyl)-1,2,4-oxadiazole-5-carboxamide], it took 1.34 nM to reach half-maximal degradation at BTK (DC50). Further, the half-maximal inhibitory concentration (IC50) in the assay on HEK-293 cells is 2220 nM.

For the compound `Cc1cc(-c2ncnc3[nH]c(-c4ccc(N5CCN([C@H]6C[C@@H](c7ccc(O[C@@H]8CCC(=O)NC8=O)cc7)C6)CC5)nc4)cc23)ccc1[C@@H](C)NC(=O)c1nc(C(C)(C)C)no1` [Example 192, 3-(tert-butyl)-N-((R)-1-(4-(6-(6-(4-((1S,3s)-3-(4-(((R)-2,6-dioxopiperidin-3-yl)oxy)phenyl)cyclobutyl)piperazin-1-yl)pyridin-3-yl)-7H-pyrrolo[2,3-d]pyrimidin-4-yl)-2-methylphenyl)ethyl)-1,2,4-oxadiazole-5-carboxamide], the DC50 at BTK is greater than 2000 nM. Besides, the IC50 in the assay on HEK-293 cells is greater than 10000 nM.

`Cc1cc(-c2ncnc3[nH]c(-c4ccc(N5CCN(CCC6CCN(c7ccc([C@H]8CCC(=O)NC8=O)cc7)CC6)CC5)nc4)cc23)ccc1[C@@H](C)NC(=O)c1nc(C(C)(C)C)no1` [Example 53, 3-(tert-butyl)-N-((R)-1-(4-(6-(6-(4-(2-(1-(4-((R)-2,6-dioxopiperidin-3-yl)phenyl)piperidin-4-yl)ethyl)piperazin-1-yl)pyridin-3-yl)-7H-pyrrolo[2,3-d]pyrimidin-4-yl)-2-methylphenyl)ethyl)-1,2,4-oxadiazole-5-carboxamide]: the DC50 at BTK is greater than 2000 nM. In the assay with HEK-293 cells, this compound registered a half-inhibitory concentration (IC50) greater than 10000 nM.

The compound `Cc1cc(-c2ncnc3[nH]c(-c4ccc(C5CCN(CC6CCN(c7cc8c(cc7F)C(=O)N(C7CCC(=O)NC7=O)C8=O)CC6)CC5)cc4)cc23)ccc1CNC(=O)c1nc(C(C)(C)C)no1` (stereo not drawn) [Example 2, 3-(tert-butyl)-N-(4-(6-(4-(1-((1-(2-(2,6-dioxopiperidin-3-yl)-6-fluoro-1,3-dioxoisoindolin-5-yl)piperidin-4-yl)methyl)piperidin-4-yl)phenyl)-7H-pyrrolo[2,3-d]pyrimidin-4-yl)-2-methylbenzyl)-1,2,4-oxadiazole-5-carboxamide] came in with a half-maximal degradation concentration (DC50) at BTK of 1.75 nM. The compound also registered an IC50 in the assay with HEK-293 cells greater than 10000 nM.

As to `C[C@@H](NC(=O)c1noc(C(C)(C)C)n1)c1ccc(-c2ncnc3[nH]c(-c4ccc(N5CCN(CC6CCN(c7ccc(N8CCC(=O)NC8=O)cc7)CC6)CC5)cn4)cc23)cc1F` [Example 108, (R)-5-(tert-butyl)-N-(1-(4-(6-(5-(4-((1-(4-(2,4-dioxotetrahydropyrimidin-1(2H)-yl)phenyl)piperidin-4-yl)methyl)piperazin-1-yl)pyridin-2-yl)-7H-pyrrolo[2,3-d]pyrimidin-4-yl)-2-fluorophenyl)ethyl)-1,2,4-oxadiazole-3-carboxamide], it took 0.35 nM to reach half-maximal degradation at BTK (DC50). Also, in the assay with HEK-293 cells, the concentration for half-maximal inhibition (IC50) was greater than 10000 nM.

As for `Cc1c([C@@H](C)NC(=O)c2noc(C(C)(C)C)n2)ccc(-c2ncnc3[nH]c(-c4ccc(N5CCN(CC6CCN(c7ccc(N8CCC(=O)NC8=O)cc7)CC6)CC5)cn4)cc23)c1F` [Example 127, (R)-5-(tert-butyl)-N-(1-(4-(6-(5-(4-((1-(4-(2,4-dioxotetrahydropyrimidin-1(2H)-yl)phenyl)piperidin-4-yl)methyl)piperazin-1-yl)pyridin-2-yl)-7H-pyrrolo[2,3-d]pyrimidin-4-yl)-3-fluoro-2-methylphenyl)ethyl)-1,2,4-oxadiazole-3-carboxamide], on BTK, it took 0.42 nM to reach half-maximal degradation (DC50). Besides, in the assay with HEK-293 cells, the IC50 was greater than 10000 nM.

Consider `Cc1cc(-c2ncnc3[nH]c(-c4ccc(C5(F)CCN(CC6CCN(c7ccc(N8CCC(=O)NC8=O)cc7)CC6)C5)cn4)cc23)ccc1[C@@H](C)NC(=O)c1nc(C(C)(C)C)no1` (stereo partly drawn) [Example 177, 3-(tert-butyl)-N-((1R)-1-(4-(6-(5-(1-((1-(4-(2,4-dioxotetrahydropyrimidin-1(2H)-yl)phenyl)piperidin-4-yl)methyl)-3-fluoropyrrolidin-3-yl)pyridin-2-yl)-7H-pyrrolo[2,3-d]pyrimidin-4-yl)-2-methylphenyl)ethyl)-1,2,4-oxadiazole-5-carboxamide], for which, on BTK, half-maximal degradation (DC50) was put at 0.99 nM. The concentration for half-maximal inhibition (IC50) in the assay with HEK-293 cells was greater than 10000 nM.

For the compound `Cc1cc(-c2ncnc3[nH]c(-c4ccc(C5CCN(CCC6CCN(c7ccc(N8CCC(=O)NC8=O)c(Cl)c7)CC6)CC5)cc4)cc23)ccc1CNC(=O)c1nc(C(C)(C)C)no1` [Example 24, 3-(tert-butyl)-N-(4-(6-(4-(1-(2-(1-(3-chloro-4-(2,4-dioxotetrahydropyrimidin-1(2H)-yl)phenyl)piperidin-4-yl)ethyl)piperidin-4-yl)phenyl)-7H-pyrrolo[2,3-d]pyrimidin-4-yl)-2-methylbenzyl)-1,2,4-oxadiazole-5-carboxamide], the 50% degradation concentration (DC50) on BTK came out at 4.8 nM. 4650 nM corresponded to half-maximal inhibition in the assay with HEK-293 cells (IC50).

With `Cc1cc(-c2ncnc3[nH]c(-c4c(C)nn(C5CN(CC6CCN(c7ccc(N8CCC(=O)NC8=O)cc7)CC6)C5)c4C)cc23)ccc1[C@@H](C)NC(=O)c1nc(C(C)(C)C)no1` [Example 169, (R)-3-(tert-butyl)-N-(1-(4-(6-(1-(1-((1-(4-(2,4-dioxotetrahydropyrimidin-1(2H)-yl)phenyl)piperidin-4-yl)methyl)azetidin-3-yl)-3,5-dimethyl-1H-pyrazol-4-yl)-7H-pyrrolo[2,3-d]pyrimidin-4-yl)-2-methylphenyl)ethyl)-1,2,4-oxadiazole-5-carboxamide], the DC50 at BTK was 0.52 nM. For the same compound, the half-maximal inhibitory concentration (IC50) in the assay on HEK-293 cells was greater than 10000 nM.

At BTK, `Cc1cc(-c2ncnc3[nH]c(-c4ccc(N5CCN(CC6CCN(c7ccc(C8CCC(=O)NC8=O)cc7)CC6)CC5)nc4)cc23)ccc1[C@@H](C)NC(=O)c1nc(C(C)(C)C)no1` (stereo partly drawn) [Example 48, 3-(tert-butyl)-N-((1R)-1-(4-(6-(6-(4-((1-(4-(2,6-dioxopiperidin-3-yl)phenyl)piperidin-4-yl)methyl)piperazin-1-yl)pyridin-3-yl)-7H-pyrrolo[2,3-d]pyrimidin-4-yl)-2-methylphenyl)ethyl)-1,2,4-oxadiazole-5-carboxamide] displayed a DC50 of 1.7 nM. The same compound registered an IC50 with HEK-293 cells greater than 10000 nM.

In the case of `Cc1cc(-c2ncnc3[nH]c(-c4ccc(N5CCN(CC6CCN(c7ccc(N8CCC(=O)NC8=O)cc7)CC6)CC5)cc4)cc23)ccc1CNC(=O)c1noc(C2(C(F)(F)F)CC2)n1` [Example 51, N-(4-(6-(4-(4-((1-(4-(2,4-dioxotetrahydropyrimidin-1(2H)-yl)phenyl)piperidin-4-yl)methyl)piperazin-1-yl)phenyl)-7H-pyrrolo[2,3-d]pyrimidin-4-yl)-2-methylbenzyl)-5-(1-(trifluoromethyl)cyclopropyl)-1,2,4-oxadiazole-3-carboxamide], half-maximal degradation on BTK (DC50) was put at 0.38 nM. In addition, the IC50 in the assay with HEK-293 cells was greater than 10000 nM.

One may read the DC50 as the concentration at which degradation of the target reaches its halfway point. What is called IC50 is the midpoint of a concentration-inhibition curve. Low readings indicate greater potency in that assay, high ones weaker potency in that assay.
